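Dose response: 5 concentrations. Exposure: 48 h. Format: 96-well plates. Endpoint: linear interpolation; highest concentration if not reached. GI50 is the concentration that inhibits growth by half.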 The source made the active and inactive calls. No stated cut-off is given here; in the data, active = GI50 up to about 1.1 µM and inactive = higher.
Tests used:
Test in all cases: NCI-60 cell line screen, 48 h
OVCAR-5 = test system: OVCAR-5
SF-539 = test system: SF-539
UO-31 = test system: UO-31
OVCAR-4 = test system: OVCAR-4
SNB-19 = test system: SNB-19
CAKI-1 = test system: CAKI-1
SN12C = test system: SN12C
HCT-116 = test system: HCT-116
HCT-15 = test system: HCT-15
SNB-75 = test system: SNB-75
HT-29 = test system: HT-29
NCI-H460 = test system: NCI-H460
HCC 2998 = test system: HCC 2998
COLO 205 = test system: COLO 205
MOLT-4 = test system: MOLT-4
HOP-62 = test system: HOP-62
OVCAR-8 = test system: OVCAR-8
A498 = test system: A498

With c1cncc(-c2ncc3cccnc3n2)c1 the GI50 (OVCAR-5) was > 100 µM (inactive), the GI50 (SF-539) was > 100 µM (inactive) and the GI50 (UO-31) was > 100 µM (inactive). For the same compound, the GI50 (OVCAR-4) was > 100 µM (inactive), the GI50 (SNB-19) was > 100 µM (inactive) and the GI50 (CAKI-1) was > 100 µM (inactive). For the same compound, the GI50 (SN12C) was > 100 µM (inactive), the GI50 (HCT-116) was > 100 µM (inactive) and the GI50 (HCT-15) was > 100 µM. For the same compound, the GI50 (SNB-75) was > 100 µM (inactive), the GI50 (HT-29) was > 100 µM (inactive) and the GI50 (NCI-H460) was > 100 µM (inactive). For the same compound, the GI50 (HCC 2998) was > 100 µM (inactive), the GI50 (COLO 205) was > 100 µM (inactive) and the GI50 (MOLT-4) was > 100 µM (inactive). The GI50 (HOP-62) was > 100 µM (inactive), the GI50 (OVCAR-8) was > 100 µM (inactive) and the GI50 (A498) was > 100 µM (inactive).

C/C(=N/NC(=S)N1CCN(C(=S)N/N=C(/C)c2ccccn2)CC1)c1ccccn1 was tested, and the GI50 (OVCAR-5) was > 66.8 µM (inactive), the GI50 (SF-539) was 6.4 µM (inactive) and the GI50 (UO-31) was 2.69 µM (inactive). For the same compound, the GI50 (OVCAR-4) was 8.2 µM (inactive), the GI50 (SNB-19) was 11.7 µM (inactive) and the GI50 (CAKI-1) was 6.56 µM (inactive). For the same compound, the GI50 (SN12C) was 8.65 µM (inactive), the GI50 (HCT-116) was 6.89 µM (inactive) and the GI50 (HCT-15) was 2.15 µM. The GI50 (SNB-75) was 15.1 µM (inactive), the GI50 (HT-29) was 7.33 µM (inactive) and the GI50 (NCI-H460) was 2.99 µM (inactive). For the same compound, the GI50 (HCC 2998) was 22.5 µM (inactive), the GI50 (COLO 205) was 4.16 µM (inactive) and the GI50 (MOLT-4) was 4.79 µM (inactive). For the same compound, the GI50 (HOP-62) was 10 µM (inactive), the GI50 (OVCAR-8) was 4.13 µM (inactive) and the GI50 (A498) was 8.81 µM (inactive).

Cc1cn([C@H]2CN(O)C[C@@H](CO)O2)c(=O)[nH]c1=O was tested, and the GI50 (OVCAR-5) was > 100 µM (inactive), the GI50 (SF-539) was > 100 µM (inactive) and the GI50 (UO-31) was > 100 µM (inactive). The GI50 (OVCAR-4) was > 100 µM (inactive), the GI50 (SNB-19) was > 100 µM (inactive) and the GI50 (CAKI-1) was > 100 µM (inactive). The GI50 (SN12C) was > 100 µM (inactive), the GI50 (HCT-116) was > 100 µM (inactive) and the GI50 (HCT-15) was > 100 µM. For the same compound, the GI50 (SNB-75) was > 100 µM (inactive), the GI50 (NCI-H460) was > 100 µM (inactive) and the GI50 (HCC 2998) was > 100 µM (inactive). For the same compound, the GI50 (COLO 205) was > 100 µM (inactive), the GI50 (MOLT-4) was > 100 µM (inactive) and the GI50 (HOP-62) was > 100 µM (inactive). The GI50 (OVCAR-8) was > 100 µM (inactive) and the GI50 (A498) was > 100 µM (inactive).

O=C(O)C1C(C(=O)Nc2ccc3c(c2)Cc2ccccc2-3)C2(Cl)C(Cl)=C(Cl)C1(Cl)C2(Cl)Cl (stereo not drawn) was tested, and the GI50 (OVCAR-5) was 20.4 µM (inactive), the GI50 (SF-539) was 13.2 µM (inactive) and the GI50 (UO-31) was 22.5 µM (inactive). The GI50 (OVCAR-4) was 27.7 µM (inactive), the GI50 (SNB-19) was 36 µM (inactive) and the GI50 (CAKI-1) was 41.9 µM (inactive). For the same compound, the GI50 (SN12C) was 33.3 µM (inactive), the GI50 (HCT-116) was 18.7 µM (inactive) and the GI50 (HCT-15) was 21.5 µM. For the same compound, the GI50 (SNB-75) was 26.2 µM (inactive), the GI50 (HT-29) was 20.3 µM (inactive) and the GI50 (HCC 2998) was 20.6 µM (inactive). For the same compound, the GI50 (COLO 205) was 17.6 µM (inactive), the GI50 (MOLT-4) was 11.6 µM (inactive) and the GI50 (HOP-62) was 31.2 µM (inactive). The GI50 (OVCAR-8) was 20.3 µM (inactive) and the GI50 (A498) was 19.4 µM (inactive).

N#C/C(=C\c1ccccc1O)C(N)=O was tested, and the GI50 (OVCAR-5) was > 100 µM (inactive), the GI50 (SF-539) was > 100 µM (inactive) and the GI50 (UO-31) was 43.6 µM (inactive). The GI50 (OVCAR-4) was > 100 µM (inactive), the GI50 (SNB-19) was 71.8 µM (inactive) and the GI50 (CAKI-1) was 54.8 µM (inactive). For the same compound, the GI50 (SN12C) was > 100 µM (inactive), the GI50 (HCT-116) was 77.3 µM (inactive) and the GI50 (HCT-15) was 87.7 µM. For the same compound, the GI50 (SNB-75) was 28.1 µM (inactive), the GI50 (HT-29) was 86.9 µM (inactive) and the GI50 (NCI-H460) was 55.7 µM (inactive). For the same compound, the GI50 (HCC 2998) was > 100 µM (inactive), the GI50 (COLO 205) was 61.8 µM (inactive) and the GI50 (MOLT-4) was 62.7 µM (inactive). The GI50 (HOP-62) was > 100 µM (inactive), the GI50 (OVCAR-8) was > 100 µM (inactive) and the GI50 (A498) was > 100 µM (inactive).

With CC(N)Cc1ccc(C(=O)Cl)cc1 (stereo not drawn) the GI50 (SF-539) was > 100 µM (inactive), the GI50 (OVCAR-4) was > 100 µM (inactive) and the GI50 (CAKI-1) was > 100 µM (inactive). For the same compound, the GI50 (SN12C) was > 100 µM (inactive), the GI50 (HCT-116) was > 100 µM (inactive) and the GI50 (HCT-15) was > 100 µM. The GI50 (SNB-75) was > 100 µM (inactive), the GI50 (HT-29) was > 100 µM (inactive) and the GI50 (NCI-H460) was > 100 µM (inactive). For the same compound, the GI50 (HCC 2998) was > 100 µM (inactive), the GI50 (COLO 205) was > 100 µM (inactive) and the GI50 (MOLT-4) was > 100 µM (inactive). For the same compound, the GI50 (HOP-62) was > 100 µM (inactive), the GI50 (OVCAR-8) was > 100 µM (inactive) and the GI50 (A498) was > 100 µM (inactive).

From ChEMBL document CHEMBL1201862, “PubChem BioAssay data set” (2004)
